Reference: patent publication US4104390A, “Thieno [2,3-c] and [3,2-c] pyridines” (Parcor, priority 1976, dated 1978)
Where two headings read alike, the source gives them in different places.

Key:
[1] = system: carrageenin-induced localized edema; assay: Carrageenin-induced localized edema method; type: in vivo; conditions: Rattus norvegicus, po, rats, 100 mg/kg orally at -1, 0, 1 and 2.5 hours
Experimental: (a) Carrageenin-induced localized edema method
0.1 ml of a 1% carrageenin solution is injected in the metatarsal flexor muscles of the right hind limb of rats at time 0. The animals of the treated group are additionally orally administered 100 mg/kg of the test derivative, respectively one hour prior to injection of the phlogogenic agent, simultaneously with said injection, and then 1 hour and 2.5 hours thereafter. The determinations effected by means of a ROCH micrometer at times 0, 1 hour, 2 hours, 3 hours and 5 hours after carrageenin administration make it possible to determine, as a function of time, the percent anti-inflammatory activity with respect to the reference group.

[2] = system: A.D.P.-induced blood-platelet aggregation; assay: A.D.P.-induced blood-platelet aggregation; type: in vivo, Wistar rats; conditions: Rattus norvegicus, po; rats, 100 mg/kg orally, 3 hours after treatment, 10 μM A.D.P. solution, with respect to control group; read-out: Percent inhibition of blood-platelet aggregation, A.D.P.
Experimental: (§1) Blood is taken from the jugular vein of Wistar rats. From this citrated blood, and after centrifugation, is reconstituted a plasma containing 600,000 ± 20,000 blood-platelets per ml which is used in all aggregation determinations.
(§2) 0.4 ml plasma is placed in a siliconized tube provided with a magnet bar, also siliconized. The tube is introduced into an aggregometer coupled with an apparatus for recording optical density variations. When light transmission has reached a stable value, 0.5 ml of a solution containing 10 μM A.D.P. (Adenosine-Di-Phosphate) is introduced into the tube.
(§3) Blood-platelet aggregation causes an increase of light transmission followed by a decrease subsequent to the deaggregation phase.
(§4) The maximal optical density variation thus determined characterizes the intensity of the aggregation.
(§5) Different groups of 20 rats are used, each group being orally administered a test derivative at a dosage of 100 mg/kg.

[3] = system: collagen-induced blood-platelet aggregation; assay: Collagen-induced blood-platelet aggregation; type: in vivo, Wistar rats; conditions: Rattus norvegicus, po; rats, 100 mg/kg orally, 3 hours after treatment, collagen (bovine tendon extract), with respect to control group; read-out: Percent inhibition of blood-platelet aggregation, Collagen
Experimental: as §1, §2, §3, §4
The A.D.P. solution is substituted with a collagen solution (bovine tendon extract).
as §5

[4] = system: ovalbumen-induced systemic edema; assay: Ovalbumen-induced systemic edema method; type: in vivo; conditions: Rattus norvegicus, po, rats, 100 mg/kg orally 1 hour before and with ovalbumen
Experimental: (b) Ovalbumen-induced systemic edema method
Simultaneous injection of 1 ml ovalbumen and 0.5 ml of a 1% aqueous Evans Blue solution is effected in rats. On the other hand, the animals of the treated group are administered orally 100 mg/kg of the test derivative one hour prior to ovalbumen administration and simultaneously with said administration. The intensity of the phenomenon thus induced is scored according to a scale from 1 to 5 depending on the progress of the inflammatory syndrome. The mean intensity of the edem and the percent decrease of the edema reaction with respect to the control group are thus determined as a function of time.

[5] = LD50, intravenous route, mice; conditions: mouse, in vivo
[6] = 1 hour after carrageenin, read-out: Percent anti-inflammatory activity after 1 hour
[7] = 2 hours after carrageenin, read-out: Percent anti-inflammatory activity after 2 hours
[8] = 3 hours after carrageenin, read-out: Percent anti-inflammatory activity after 3 hours
[9] = 5 hours after carrageenin, read-out: Percent anti-inflammatory activity after 5 hours
[10] = 2 hours after ovalbumen, read-out: Percent anti-inflammatory activity after 2 hours
[11] = 3 hours after ovalbumen, read-out: Percent anti-inflammatory activity after 3 hours

Compound | inhibition in vivo at 100 mg/kg [1, 6] [%] | inhibition in vivo at 100 mg/kg [1, 7] [%] | inhibition in vivo at 100 mg/kg [1, 8] [%] | inhibition in vivo at 100 mg/kg [1, 9] [%] | inhibition at 100 mg/kg [2] [%] | inhibition at 100 mg/kg [3] [%] | inhibition in vivo at 100 mg/kg [4, 10] [%] | inhibition in vivo at 100 mg/kg [4, 11] [%] | LD50 at 24 h [5] [mg/kg]
CC1NCc2sccc2C1c1ccccc1 (centres unmarked) [derivative n°1, 5-Methyl-4-phenyl-4,5,6,7-tetrahydro-thieno[2,3-c]pyridine] | 37 | 43 | 45 | 47 | 64.9 | 96.2 | 47 | 54 | 63
c1ccc(C2CNCc3sccc32)cc1 (centres unmarked) [derivative n°3, 4-Phenyl-4,5,6,7-tetrahydro-thieno[2,3-c]pyridine] | 41 | 46 | 50 | 51 | 64.1 | 95.6 | 52 | 59 | 69
CN1Cc2sccc2C(c2ccccc2)C1 (centres unmarked) [derivative n°5, 6-Methyl-4-phenyl-4,5,6,7-tetrahydro-thieno[2,3-c]pyridine] | 37 | 45 | 50 | 51 | 63.6 | 93.8 | 44 | 51 | 61
Clc1ccccc1CN1Cc2ccsc2C(c2ccccc2)C1 (centres unmarked) [derivative n°19, 5-o.Chlorobenzyl-7-phenyl-4,5,6,7-tetrahydro-thieno[3,2-c]pyridine] | 47 | 53 | 54 | 56 | 62.3 | 93.7 | 49 | 57 | –
c1ccc(CCN2Cc3ccsc3C(c3ccccc3)C2)cc1 (centres unmarked) [derivative n°20, 5-Phenethyl-7-phenyl-4,5,6,7-tetrahydro-thieno[3,2-c]pyridine] | 43 | 48 | 52 | 55 | 63.6 | 94.2 | 53 | 61 | –
CCCCN1Cc2ccsc2C(c2ccccc2)C1 (centres unmarked) [derivative n°21, 5-Butyl-7-phenyl-4,5,6,7-tetrahydro-thieno[3,2-c]pyridine] | 38 | 44 | 46 | 49 | 62.2 | 94 | 51 | 57 | –
CC1C(c2ccccc2)c2sccc2CN1Cc1ccc([N+](=O)[O-])cc1 (centres unmarked) [derivative n°22, 6-Methyl-5-p.nitrobenzyl-7-phenyl-4,5,6,7-tetrahydro-thieno[3,2-c]pyridine] | 41 | 49 | 53 | 56 | 63.4 | 94.6 | 50 | 57 | –
CC1C(c2ccccc2)c2sccc2CN1Cc1ccccc1Cl (centres unmarked) [derivative n°23, 5-o.Chlorobenzyl-6-methyl-7-phenyl-4,5,6,7-tetrahydro-thieno[3,2-c]pyridine] | 39 | 44 | 48 | 52 | 64.8 | 94.5 | 47 | 54 | –
c1ccc(CN2Cc3ccsc3C(c3ccccc3)C2)cc1 (centres unmarked) [derivative n°24, 5-Benzyl-7-phenyl-4,5,6,7-tetrahydro-thieno[3,2-c]pyridine] | 41 | 47 | 50 | 53 | 62.6 | 93 | 42 | 47 | –
c1ccc(CCN2Cc3sccc3C(c3ccccc3)C2)cc1 (centres unmarked) [derivative n°25, 6-Phenethyl-4-phenyl-4,5,6,7-tetrahydro-thieno[2,3-c]pyridine] | 47 | 52 | 56 | 60 | 64.1 | 93.8 | 44 | 51 | –
N#Cc1ccccc1CN1Cc2ccsc2C(c2ccccc2)C1 (centres unmarked) [derivative n°26] | 44 | 49 | 52 | 56 | 60.9 | 90.2 | 48 | 54 | –
COc1ccc(CN2Cc3ccsc3C(c3ccccc3)C2)cc1 (centres unmarked) [derivative n°27, 5-p.Methoxybenzyl-7-phenyl-4,5,6,7-tetrahydro-thieno[3,2-c]pyridine] | 38 | 45 | 49 | 52 | 63 | 92.4 | 51 | 56 | –
COC(=O)c1ccccc1CN1Cc2ccsc2C(c2ccccc2)C1 (centres unmarked) [derivative n°28, 5-o.Methoxycarbonylbenzyl-7-phenyl-4,5,6,7-tetrahydro-thieno[3,2-c]pyridine] | 41 | 47 | 51 | 53 | 62.3 | 92.2 | 45 | 52 | –
